Settings: 74 MBq in 3 ml NaCl 0.9%, mesh nebulizer; Mean +/- SD of four experiments
Method: Following European recommendations, 2 five-year-old healthy female cynomolgus macaques, 3–4 kg, were housed under conventional conditions in the animal facility. […] Animals were acclimatized to laboratory conditions and trained to breathe an aerosol with a facemask spontaneously. Aerosol generated from 3 ml of 0.9% NaCl mixed with 74 MBq of DTPA radiolabeled with technetium 99 m (^99mTc-DTPA) was administered through a facemask connected to the prototype mesh nebulizers, as used in MeV infection experiments (Fig. 2a). Deposition of aerosol was extrapolated based on the ^99mTc-DTPA signal measured at the end of the nebulization using a gamma camera (Orbiter 75 Ecam, Siemens healthcare, Erlangen, Germany)[69]. The nebulizer charge was measured by counting the radioactivity in the syringe (that contained ^99mTc-DTPA) before and after loading the nebulizers. Immediately after aerosol delivery, the animals were imaged using the gamma camera. The post-anterior static scintigraphy acquisition was performed for 120 s. The amount of ^99mTc-DTPA deposited into airways and stomach and remaining in the nebulizer was determined from the digitalized images taking into account the tissue attenuation coefficients, previously determined by perfusion scintigraphy (intravenous injection of ^99mTc-macroagregates of albumin). The organ body outline was specified using a specific Region Of Interest (ROI), and the lungs were delineated using the perfusion scan ROI. The aerosol dose delivered to different organs of NHPs is reported as a percentage of the nominal dose placed in the nebulizer for that given experiment, taking into account the decay of technetium for all measurements.

O=C([O-])CN(CCN(CC(=O)[O-])CC(=O)[O-])CCN(CC(=O)[O-])CC(=O)[O-].[99Tc+4] [99mTC-DTPA, DTPA radiolabeled with technetium 99 m]
Deposition in macaque, Esophagus / trachea: 3.4 +/- 4.2%
Deposition in macaque, Lungs: 11.4 +/- 3.1%
Deposition in macaque, Stomach: 11.9 +/-9.2%
Deposition in macaque, Upper respiratory Tract: 29.5 +/- 11.9%

From PMC9616412, “Nebulized fusion inhibitory peptide protects cynomolgus macaques from measles virus infection” (Nature Communications, 2022)
